Laboratory results reported in publication PMC9699089 (Pathogens, 2022).
Read-outs that look alike come from different tables or passages of the source.

Experiments:
[1] = test system: FPf1T (DNA, G4) GGGTTTAGGGTTTAGGGTTTAGGG; assay: FRET melting; conditions: 10 mM KCl, 90 mM LiCl; 10 mM lithium cacodylate pH 7.2; 0.2 µM oligonucleotide, 2 µM compound
[2] = test system: FtrypBT (FEBR1T) (DNA, G4) GGGCAGGGGGTGATGGGGAGGAGCCAGGG; assay: FRET melting; conditions: 10 mM KCl, 90 mM LiCl; 10 mM lithium cacodylate pH 7.2; 0.2 µM oligonucleotide, 2 µM compound
[3] = test system: F21T (DNA, G4) GGGTTAGGGTTAGGGTTAGGG; assay: FRET melting; conditions: 10 mM KCl, 90 mM LiCl; 10 mM lithium cacodylate pH 7.2; 0.2 µM oligonucleotide, 2 µM compound
[4] = test system: 24TTG (DNA, G4) TTGGGTTAGGGTTAGGGTTAGGGA; assay: native ESI-MS; conditions: 1 mM KCl, 100 mM TMAA, 10 µM oligonucleotide; for Kd1: 20 µM ligand
[5] = test system: FPf8T (DNA, G4) GGGTTCAGGGTTCAGGGTTCAGGG; assay: FRET melting; conditions: 10 mM KCl, 90 mM LiCl; 10 mM lithium cacodylate pH 7.2; 0.2 µM oligonucleotide, 2 µM compound
[6] = test system: FdxT (DNA, hairpin, hexaethyleneglycol linker between position 10 and 11) TATAGCTATATATAGCTATA; assay: FRET melting; conditions: 10 mM KCl, 90 mM LiCl; 10 mM lithium cacodylate pH 7.2; 0.2 µM oligonucleotide, 2 µM compound
[7] = test system: Pf8 (DNA, G4) GGGTTCAGGGTTCAGGGTTCAGGG; assay: native ESI-MS; conditions: 1 mM KCl, 100 mM TMAA, 10 µM oligonucleotide, 20 µM ligand
[8] = test system: Pf1 (DNA, G4) GGGTTTAGGGTTTAGGGTTTAGGG; assay: native ESI-MS; conditions: 1 mM KCl, 100 mM TMAA, 10 µM oligonucleotide; for Kd1: 20 µM ligand
[9] = test system: 24nonG4 (DNA, single strand) TGGGATGCGACAGAGAGGACGGGA; assay: native ESI-MS; conditions: 1 mM KCl; 100 mM TMAA; 10 µM oligonucleotide; no binding detected at 20 µM ligand
[10] = test system: DK66 (DNA, duplex) CGCGAATTCGCG; assay: native ESI-MS; conditions: 1 mM KCl; 100 mM TMAA; 10 µM oligonucleotide; no binding detected at 20 µM ligand
[11] = test system: Plasmodium telomeric sequence FPf1T G-quadruplex; assay: FRET melting assay, FPf1T; assay type: binding, Plasmodium falciparum; conditions: tested at 1 μM, oligonucleotide 0.2 μM, K+ conditions
[12] = test system: Plasmodium falciparum CQ-sensitive strain 3D7; assay: In vitro antiplasmodial activity, SYBR Green I fluorescence-based method, strain 3D7; assay type: cell-based; conditions: read-out: P. falciparum Strains IC50 Values 3D7
Experimental: (§1) The in vitro antiplasmodial activities were tested over concentrations ranging from 39 nM to 40 µM against culture-adapted Plasmodium falciparum reference strains 3D7 and W2. […] These two strains are obtained from the collection of the National Museum of Natural History (Paris, France). The parasites were cultivated in RPMI medium (Sigma Aldrich, Lyon, France) supplemented with 0.5% Albumax I (Life Technologies Corporation, Paisley, UK), hypoxanthine (Sigma Aldrich), and gentamicin (Sigma Aldrich) with human erythrocytes and were incubated at 37 °C in a candle jar, as described previously. The P. falciparum drug susceptibility test was carried out in 96-well flat bottom sterile plates in a final volume of 250 µL. After 48 h incubation period with the drugs, quantities of DNA in treated and control cultures of parasites in human erythrocytes were quantified using the SYBR Green I (Sigma Aldrich) fluorescence-based method. Briefly, after incubation, plates were frozen at -20 °C until use. Plates were then thawed for 2 h at room temperature, and 100 µL of each homogenized culture was transferred to a well of a 96-well flat bottom sterile black plate (Nunc, Inc.) that contained 100 µL of the SYBR Green I lysis buffer (2xSYBR Green, 20 mM Tris base pH 7.5, 5 mM EDTA, 0.008% w/v saponin, 0.08% w/v Triton X-100). […] Plates were incubated for 1 h at room temperature and then read on a fluorescence plate reader (Tecan, Austria) using excitation and emission wavelengths of 485 and 535 nm, respectively.

[13] = test system: Plasmodium telomeric sequence FPf8T G-quadruplex; assay: FRET melting assay, FPf8T; assay type: binding, Plasmodium falciparum; conditions: tested at 1 μM, oligonucleotide 0.2 μM, K+ conditions
[14] = test system: human telomeric sequence F21T G-quadruplex; assay: FRET melting assay, F21T; assay type: binding; conditions: tested at 1 μM, oligonucleotide 0.2 μM, K+ conditions
[15] = test system: Plasmodium falciparum CQ-resistant strain W2; assay: In vitro antiplasmodial activity, SYBR Green I fluorescence-based method, strain W2; assay type: cell-based; conditions: read-out: P. falciparum Strains IC50 Values W2
Experimental: as §1

[16] = Cytotoxicity evaluation, MTT assay; assay type: cell-based, human; conditions: human
Experimental: (§2) These cells are a commonly used human hepatocarcinoma-derived cell line that has characteristics similar to those of primary hepatocytes. These cells express many hepatocyte-specific metabolic enzymes, thus enabling the cytotoxicity of tested product metabolites to be evaluated. […] Duplicate assays were performed for each sample. Each well was microscopically examined for precipitate formation before the medium was aspirated from the wells. After aspiration, 100 µL of MTT solution (0.5 mg/mL in medium without FCS) were then added to each well. […] The MTT solution was removed, and DMSO (100 µL) was added to dissolve the resulting blue formazan crystals. Plates were shaken vigorously (300 rpm) for 5 min. The absorbance was measured at 570 nm with 630 nm as reference wavelength in a BIO-TEK ELx808 Absorbance Microplate Reader. DMSO was used as blank and doxorubicin (Sigma Aldrich) as positive control. Cell viability was calculated as percentage of control (cells incubated without compound). The CC50 was determined from the dose-response curve using TableCurve 2D V5.0 software (Systat Software, Palo Alto, CA, USA).

[17] = test system: Plasmodium telomeric sequence FPf1T G-quadruplex; assay: FRET melting assay, FPf1T; assay type: binding, Plasmodium falciparum; conditions: compound 2 μM, oligonucleotide 0.2 μM, K+ conditions
Experimental: (§3) These were performed with dual-labeled oligonucleotides mimicking the Plasmodium telomeric sequences FPf1T [FAM-5′(GGGTTTA)3-GGG3′-TAMRA] and FPf8T [FAM-5′(GGGTTCA)3GGG3′-TAMRA], the Trypanosoma 9 and 11 chromosomic sequence FTrypBT (also named FEBR1T) [FAM-5′[…]3′-TAMRA], the human telomeric sequence F21T [FAM-(GGGTTA)3-GGG3′-TAMRA] and the human duplex sequence FdxT [FAM5′-[…]-hexaethyleneglycol-[…]3′-TAMRA] [27, 31, 47]. The oligonucleotides were pre-folded in 10 mM lithium cacodylate buffer (pH 7.2), with 10 mM KCl and 90 mM LiCl (K^+ condition). The FAM emissions were recorded at 516 nm using a 492-nm excitation wavelength in the absence and presence of a single compound as a function of temperature (25 to 95 °C) in 96-well microplates using a Stratagene MX3000P real-time PCR device at a rate of 1 °C∙min-1. Data were normalized between 0 and 1, and the required temperature for half-denaturation of oligonucleotides corresponding to the emission value of 0.5 was taken as the Tm. Each experiment was performed in duplicate with 0.2 µM of labeled oligonucleotide and 2 µM of compound under K^+ condition. For each compound, three independent experiments were carried out.

[18] = test system: Trypanosoma 9 and 11 chromosomic sequence FTrypBT (FEBR1T) G-quadruplex; assay: FRET melting assay, FtrypBT; assay type: binding, Trypanosoma brucei brucei; conditions: compound 2 μM, oligonucleotide 0.2 μM, K+ conditions
Experimental: as §3

[19] = test system: T. brucei brucei AnTat 1.9; assay: In vitro antitrypanosomal activity, Alamar Blue assay; assay type: cell-based, Trypanosoma brucei brucei; conditions: for IC50: Trypanosoma brucei, slender bloodstream trypomastigotes, AnTat 1.9 strain, mean +/- SD of three independent experiments, read-out: Trypanosoma brucei brucei IC50 Values Trypanos Antat 1.9
Experimental: The effects of the tested compounds on the growth of T. brucei brucei were assessed using an Alamar Blue® assay described by Räz et al. T. brucei brucei AnTat 1.9 ([…], Belgium) was cultured in MEM with Earle's salts, supplemented according to the protocol of Baltz et al. […] All doses were tested in duplicate. Appropriate controls treated with solvents 0.9% NaCl or DMSO or with suramin, pentamidine, eflornithine, and fexinidazole (reference drugs purchased from Sigma Aldrich and Fluorochem, UK) were added to each set of experiments. After 69 h incubation period at 37 °C, 10 μL of the viability marker Alamar Blue (Fisher) was added to each well, and the plates were incubated for 5 h. The plates were read in a PerkinElmer ENSPIRE (Germany) microplate reader using an excitation wavelength of 530 nm and an emission wavelength of 590 nm.

[20] = test system: L. donovani (MHOM/IN/00/DEVI) promastigotes; assay: In vitro antileishmanial activity on promastigotes, MTT assay; assay type: cell-based; conditions: Leishmania donovani, 72 h incubation, mean +/- SD of three independent experiments
Experimental: L. donovani (MHOM/IN/00/DEVI) used in this study was provided by the CNR Leishmania (Montpellier, France). The effects of the tested compounds on the growth of L. donovani (MHOM/IN/00/DEVI) promastigotes were assessed by MTT assay. Briefly, promastigotes in log-phase in Schneider’s medium supplemented with 20% fetal calf serum (FCS), 2 mM L-glutamine and antibiotics (100 U/mL penicillin and 100 µg/mL streptomycin), were incubated at an average density of 10^6 parasites/mL in sterile 96-well plates with various concentrations of compounds previously dissolved in DMSO (final concentration less than 0.5% v/v), in duplicate. […] Duplicate assays were performed for each sample. After the 72 h incubation period at 27 °C, parasite metabolic activity was determined. Each well was microscopically examined for precipitate formation. To each well was added 10 µL of 10 mg/mL MTT [3-(4,5-dimethylthiazol-2-yl)-2,5-diphenyltetrazolium bromide)] solution followed by 4 h incubation time. The enzyme reaction was stopped by addition of 100 µL of 50% isopropanol/10% sodium dodecyl sulfate. Plates were vigorously shaken (300 rpm) for 10 min, and the absorbance was measured at 570 nm with 630 nm as reference wavelength in a BIOTEK ELx808 Absorbance Microplate Reader (Agilent Technologies, Les Ulis, France). […] IC50 of the parasite’s growth (half maximal inhibitory concentration or IC50 values) were then calculated from the obtained experimental results using a previously described regression program. IC50 values were calculated from three independent experiments.

[21] = test system: Plasmodium telomeric sequence FPf8T G-quadruplex; assay: FRET melting assay, FPf8T; assay type: binding, Plasmodium falciparum; conditions: compound 2 μM, oligonucleotide 0.2 μM, K+ conditions
Experimental: as §3

[22] = test system: human telomeric sequence F21T G-quadruplex; assay: FRET melting assay, F21T; assay type: binding; conditions: compound 2 μM, oligonucleotide 0.2 μM, K+ conditions
Experimental: as §3

[23] = test system: human duplex sequence FdxT; assay: FRET melting assay, duplex control FdxT; assay type: binding; conditions: compound 2 μM, oligonucleotide 0.2 μM, K+ conditions
Experimental: as §3

human HepG2 cells = assay: Cytotoxicity evaluation, MTT assay; assay type: cell-based; conditions: HepG2 cells; 72 h; mean +/- SD of three independent experiments
Experimental: as §2

[24] = no binding detected at 20 µM ligand
[25] = CQ-sensitive strain 3D7, 48 h incubation, mean of three independent experiments
[26] = CQ-resistant strain W2, 48 h incubation, mean of three independent experiments

## CN(C)CCCCCNCc1cc(-c2ccccc2)c2ccc3c(-c4ccccc4)cc(CNCCCCCN(C)C)nc3c2n1
[1]
  ΔTm: 18.8 ± 0.2 °C
[2]
  ΔTm: 14.7 ± 0.7 °C
[3]
  ΔTm: 18.1 ± 0.9 °C
[4]; site 1 of 2 (Kd2 62 µM)
  Kd1: 38 µM
[5]
  ΔTm: 20.5 ± 0.2 °C
[6]
  ΔTm: 1.8 ± 0.2 °C
[7]; site 1 of 2 (Kd2 16 µM)
  Kd1: 3 µM
[8]; site 1 of 2 (Kd2 24 µM)
  Kd1: 8 µM

## CN(C)CCCCNCc1cc(-c2ccccc2)c2ccc3c(-c4ccccc4)cc(CNCCCCN(C)C)nc3c2n1
[4]; site 1 of 2 (Kd2 28 µM)
  Kd1: 44 µM
[7]; site 1 of 2 (Kd2 50 µM)
  Kd1: 3 µM

## c1ccc(-c2cc(CNCCCN3CCCC3)nc3c2ccc2c(-c4ccccc4)cc(CNCCCN4CCCC4)nc23)cc1
[4]; site 1 of 2 (Kd2 18 µM)
  Kd1: 34 µM
[6]
  ΔTm: 0.7 ± 0.2 °C
[7]; site 1 of 2 (Kd2 59 µM)
  Kd1: 2 µM
[8]; site 1 of 2 (Kd2 37 µM)
  Kd1: 10 µM

## c1ccc(-c2cc(CNCCc3ccccn3)nc3c2ccc2c(-c4ccccc4)cc(CNCCc4ccccn4)nc23)cc1
[1]
  ΔTm: 1.3 ± 0.2 °C
[2]
  ΔTm: 1.8 ± 0.6 °C
[3]
  ΔTm: 1.0 ± 0.5 °C
[9]
  binding: no
[4]; [24]
  binding: no
[5]
  ΔTm: 1.0 ± 0.2 °C
[7]
  Kd1: 83 µM
[8]; [24]
  binding: no
[10]
  binding: no

## CCN(CC)CCCC(C)Nc1ccnc2cc(Cl)ccc12 (centres unmarked) [CQ, chloroquine]
[11]
  ΔTm FPf1T: 1.9 °C
[12]; 3D7, 48 h
  IC50: 110 ± 10 nM
[13]
  ΔTm FPf8T: 2.4 °C
[14]
  ΔTm F21T: 2.4 °C
[15]; W2, 48 h
  IC50: 400 ± 40 nM

## c1ccc(-c2cc(CNCCCc3ccncc3)nc3c2ccc2c(-c4ccccc4)cc(CNCCCc4ccncc4)nc23)cc1 [Compound 1p]
[16]
  CC50 at 72 h: 3040 ± 190 nM
[17]
  ΔTm FPf1T: 3.5 °C
[18]
  ΔTm FtrypBT: 3.7 °C
[19]
  IC50: 650 ± 50 nM
[12]; [25]
  IC50: 1020 ± 350 nM
[20]
  IC50: > 12500 nM
[21]
  ΔTm FPf8T: 3.9 °C
[22]
  ΔTm F21T: 3.6 °C
[15]; [26]
  IC50: 145 ± 40 nM
[23]
  ΔTm FdxT: −1.1 °C

## OC(c1cc(C(F)(F)F)nc2c(C(F)(F)F)cccc12)C1CCCCN1 (centres unmarked) [MQ, mefloquine]
[11]
  ΔTm FPf1T: 3.1 °C
[12]; [25]
  IC50: 60 ± 3 nM
[13]
  ΔTm FPf8T: 6.6 °C
[14]
  ΔTm F21T: 2.6 °C
[15]; [26]
  IC50: 16 ± 2 nM

## N=C(N)c1ccc(OCCCCCOc2ccc(C(=N)N)cc2)cc1 [Pentamidine, reference compound]
Human HepG2 cells
  CC50: 2300 ± 500 nM
[19]; SI = CC50 HepG2 / IC50 Trypanosoma brucei brucei
  Selectivity Index HepG2/Tryp.: 11,500
[19]
  IC50: 0.2 ± 0.06 nM
[20]
  IC50: 5500 ± 800 nM
